Experimental data as given in patent US12545665B2, “Crystal form of 6-(cyclopropanecarboxamido)-4-((2-methoxy-3-(1-methyl-1H-1,2,4-triazol-3-yl)phenyl)amino)-n-(methyl-d3) pyridazine-3-carboxamide” (Bristol-Myers Squibb Company, priority 2017, dated 2026).

Tests used:
Assay type in all cases: physicochemical
[1] = Chemical stability (% Assay) of micronized Form A stored at different temperature and humidity conditions
Description: Samples of micronized Form A of Compound (I) were stored at different conditions of temperature and humidity for 4 weeks. The physical stability, characterized by DSC, TGA, and PXRD, were measured at 2 and 4 weeks.

[2] = Physical stability on storage, characterized by DSC, TGA and PXRD; details: samples stored for 4 weeks at different conditions of temperature and humidity, TGA, PXRD
Description: X-ray powder diffraction (PXRD) data were obtained using a Bruker C2 GADDS with Vantec-500 detector. The radiation was Cu Kα (40 KV, 40 mA). The sample-detector distance was […]. Incident optics include Goebel mirror and 0.3 mm collimator. Powder samples were placed in sealed glass capillaries of 1 mm or less in diameter; the capillary was rotated during data collection. Data were collected for 2≤2θ≤35° with a sample exposure time of at least 1000 seconds. The resulting two-dimensional diffraction arcs were integrated to create a traditional 1-dimensional PXRD pattern with a step size of 0.05 degrees 2θ in the range of ˜2 to ˜30 degrees 2θ.
Differential scanning calorimetry (DSC) experiments were performed in a TA Instruments™ model Q2000. The sample (about 2-6 mg) was weighed in an aluminum pan and recorded accurately recorded to a hundredth of a milligram, and transferred to the DSC. […] Data were collected between room temperature and 300° C. at 10° C./min heating rate. The plot was made with the endothermic peaks pointing down.
Thermal gravimetric analysis (TGA) experiments were performed in a TA Instruments™ model Q5000. The sample (about 10-30 mg) was placed in a platinum pan previously tared. […] The furnace was purged with nitrogen gas at 100 mL/min. Data were collected between room temperature and 300° C. at 10° C./min heating rate.

[3] = Moisture-sorption isotherm (VTI)
Description: Form A of Compound (I) is non-hygroscopic with less than 0.1 weight % gain between 25 to 75% relative humidity at 25° C.
Moisture-sorption isotherms were collected in a TA Instrument VTI-SA+ Vapor Sorption Analyzer using approximately 10 mg of sample. The sample was dried at 60° C. until the loss rate of 0.0005 wt %/min was obtained for 10 minutes. The sample was tested at 25° C. and 3 or 4, 5, 15, 25, 35, 45, 50, 65, 75, 85, and 95% relative humidity (RH). Equilibration at each relative humidity was reached when the rate of 0.0003 wt %/min for 35 minutes was achieved or a maximum of 600 minutes.

[4] = at the tested temperature and humidity conditions

## [2H]C([2H])([2H])NC(=O)c1nnc(NC(=O)C2CC2)cc1Nc1cccc(-c2ncn(C)n2)c1OC [Form A of Compound (I), 6-(cyclopropanecarboxamido)-4-((2-methoxy-3-(1-methyl-1H-1,2,4-triazol-3-yl)phenyl)amino)-N-(methyl-d3)pyridazine-3-carboxamide]
[1]; High Intensity Light/UV, 2 weeks
  % Assay: 99.3%
[1]; High Intensity Light/UV, 4 weeks
  % Assay: 99.2%
[1]; [4]
  Impurity profiles: remain unchanged
  Physical or chemical degradation: no significant physical or chemical degradation
[1]; samples of Table 2, stored up to 4 weeks
  Change in chemical stability: no measure change in chemical stability
[1]; stored at 5° C. (control), 2 weeks
  % Assay: 99.2%
[1]; stored at 5° C. (control), 4 weeks
  % Assay: 99.2%
[1]; stored at 25° C./60% relative humidity (closed), 2 weeks
  % Assay: 99.2%
[1]; stored at 25° C./60% relative humidity (closed), 4 weeks
  % Assay: 99.2%
[1]; stored at 40° C./75% relative humidity (open), 2 weeks
  % Assay: 99.2%
[1]; stored at 40° C./75% relative humidity (open), 4 weeks
  % Assay: 99.2%
[1]; stored at 50° C., 2 weeks
  % Assay: 99.2%
[1]; stored at 50° C., 4 weeks
  % Assay: 99.2%
[2]
  Change in physical form: No change in the physical form was detected
[3]; between 25 to 75% relative humidity at 25° C.
  Weight gain: less than 0.1 weight %
[3]; moisture sorption isotherm at 25° C.
  Hygroscopicity: non-hygroscopic
